Data reported in publication PMC5253108 (European journal of medicinal chemistry, 2016).

Tests used:
HepG2 liver cells = assay: In vitro cytotoxicity, Cell-Titer Glo viability, HepG2; type: cell-based; conditions: 48 hours
[1] = tested on: BEAS2B lung epithelial cells; assay: In vitro cytotoxicity, Cell-Titer Glo viability, BEAS2B; type: cell-based; conditions: 48 hours
[2] = In vitro liver microsomal stability; type: in vitro ADME, mouse
HEK293 kidney cells = type: cell-based; conditions: 48 hours, Cell-Titer Glo
Swiss Webster mice = assay: Rotarod assay of sensorimotor coordination in mice; conditions: for sensorimotor impairment on rotarod: 40 mg/kg i.p., Swiss Webster mice, 10, 30 and 60 min

| Structure (SMILES) | Toxicity in HEPG2 (Liver) LD50 (HepG2 liver cells) [µM] | Toxicity in BEAS 2B (Lung) LD50 [1] [µM] | loss at 1 h in mouse liver microsomes [2] | Toxicity in HEK293 (Kidney) LD50 (HEK293 kidney cells) [µM] | sensorimotor impairment on rotarod (Swiss Webster mice) | metabolically converted after one hour ([2]; after one hour, corresponds to mouse liver microsome values of Table 1) [%] | toxicity in HEK293 cells (HEK293 kidney cells) | sensorimotor impairment on rotarod, positive control (Swiss Webster mice; 5 mg/kg i.p., Swiss Webster mice) |
| --- | --- | --- | --- | --- | --- | --- | --- | --- |
| [2H]C([2H])([2H])Oc1ccc2c(c1)C(=O)N1CCC[C@H]1c1c(C(=O)OCC)ncn1-2 [Compound 5a] | >400 | >400 | less than 20% | >400 | – | – | – | – |
| CCOC(=O)c1ncn2c1[C@@H]1CCCN1C(=O)c1cc(O)ccc1-2 [Compound 6] | >400 | >400 | less than 20% | – | did not induce sensorimotor impairment | – | – | – |
| [2H]C([2H])([2H])Oc1ccc2c(c1)C(=O)N1CCC[C@H]1c1c(C(=O)OC(C)(C)C)ncn1-2 [Compound 7a] | >400 | >200 | – | >100 | – | – | – | – |
| CC(C)(C)OC(=O)c1ncn2c1[C@@H]1CCCN1C(=O)c1cc(O)ccc1-2 [Compound 8] | >400 | >400 | – | – | – | – | – | – |
| [2H]C([2H])([2H])Oc1ccc2c(c1)C(=O)N1CCC[C@H]1c1c(C(=O)O)ncn1-2 [Compound 9a] | >400 | >400 | less than 20% | >400 | did not induce sensorimotor impairment | – | – | – |
| COC(=O)c1ncn2c1[C@@H]1CCCN1C(=O)c1cc(OC)ccc1-2 [Compound 10, (S)-Methyl-7-methoxy-9-oxo-11,12,13,13a-tetrahydro-9H-benzo[e]imidazo[5,1-c]pyrrolo[1,2-a][1,4]diazepine-1-carboxylate] | >400 | >400 | – | >400 | did not induce any sensorimotor impairment | 30 | – | – |
| CNC(=O)c1ncn2c1[C@@H]1CCCN1C(=O)c1cc(OC)ccc1-2 [Compound 15] | >400 | >400 | – | >100 | most severe motor impairment | – | – | – |
| [2H]C([2H])([2H])Oc1ccc2c(c1)C(=O)N1CCC[C@H]1c1c(C(=O)NC)ncn1-2 [Compound 15a] | >400 | >400 | – | >100 | – | – | – | – |
| CCNC(=O)c1ncn2c1[C@@H]1CCCN1C(=O)c1cc(OC)ccc1-2 [Compound 17] | >400 | >400 | – | >400 | – | – | – | – |
| [2H]C([2H])([2H])Oc1ccc2c(c1)C(=O)N1CCC[C@H]1c1c(C(=O)NCC)ncn1-2 [Compound 17a] | >400 | – | less than 20% | – | did not induce sensorimotor impairment | – | – | – |
| COc1ccc2c(c1)C(=O)N1CCC[C@H]1c1c(C(=O)NC(C)(C)C)ncn1-2 [Compound 18] | >400 | >400 | – | >200 | – | – | – | – |
| [2H]C([2H])([2H])Oc1ccc2c(c1)C(=O)N1CCC[C@H]1c1c(C(=O)NC(C)(C)C)ncn1-2 [Compound 18a] | >400 | – | – | – | most severe motor impairment | – | – | – |
| [2H]C([2H])([2H])Oc1ccc2c(c1)C(=O)N1CCC[C@H]1c1c(C(=O)NC3CC3)ncn1-2 [Compound 19a] | >400 | – | less than 20% | – | – | – | some toxicity | – |
| CN1C(=O)CN=C(c2ccccc2)c2cc(Cl)ccc21 [diazepam, reference compound] | – | – | – | – | – | – | – | greatest impairment of sensorimotor steadiness at 10 minutes |
